# Assays:
# [1] = tested on: mechanical hyperalgesia after nerve ligation; test: Neuropathic pain model, spinal nerve constriction, von Frey paw withdrawal threshold; type: in vivo, rat; conditions: 20 mg/kg po, tested 3 hours after dosing
# Method: Adult male Sprague-Dawley rats received unilateral constriction of the L6 nerve to produce chronic nerve injury. Following recovery from surgery (3–7 days post operative) animals were tested for paw withdrawal threshold to mechanical stimuli applied to the affected paw. This was determined by the application of calibrated von Frey monofilaments to the plantar surface of each hindpaw. Only animals with a 50% decrease in withdrawal threshold in the ligated paw were employed in the study, and were randomly assigned to one of 6 groups: three groups receiving one of three doses of HP 184 (0.3, 3 and 20 mg/kg, po), a fourth group receiving a single dose of another compound referred to MDL (10 mg/kg, ip), a fifth group receiving gabapentin (90 mg/kg, sc), and a sixth group receiving vehicle only. Behavioral testing occurred 45 minutes following the gabapentin (90 mg/kg, sc), and 3 hours following the HP 184, MDL, and vehicle. A difference score between the ligated and non-ligated paw withdrawal thresholds is calculated for each animal, and these differences were subjected to ANOVA with group as the main factor. […] Analysis was between/within repeated measures ANOVA. […]
# [2] = micromolar brain concentrations one hour after ip administration of 30 mg/kg in rats; cited from earlier work
# [3] = tested on: photothrombotic cerebral lesion; test: Edema after photothrombotic cerebral lesion in the rat; type: in vivo
# Method: Method: Male Sprague Dawley rats (180–200 g bw) were anaesthetized with chloral hydrate (400 mg/kg ip) and placed in a stereotaxic apparatus. The skin was opened to reveal the skull and a cold light (Bioblock 150 W) was placed in contact with the right side of the skull forward of lambda. Bengal rose dye (10 mg/kg iv in saline) was administered intravenously and illumination of the skull started immediately and continued for 5 minutes. The skin was then sutured closed over the skull and the animal returned to its cage. Twenty-four hours after the photothrombotic lesion animals received HP184 made up in 1% tween in water by intravenous route at 0, 10 or 20 mg/kg body weight in a volume of 5 ml/kg. One hour later, animals were killed by decapitation and their brains removed (see appendix for protocol). Core samples were taken at the site of the lesion, and contralateral to the lesion, using a 6 mm diameter cork borer. Water content was determined by wet weight of tissue/dry weight of tissue and edema expressed as % excess water on lesioned sample compared with sample from contralateral hemisphere for each rat.
# [4] = tested on: demyelinated area at the moderate compression injury site; test: Histological study of spinal cords, demyelinated area (luxol fast blue); type: in vivo, rat
# Method: A study to test whether the treatment with HP184 affected the amount of myelin in rats with moderate long term spinal cord crush injury when administered long after spinal cord injury.
# The spinal cords from rats described above in the assessment were used for this study.
# (50–60 mg/kg body weight, i.p.) and perfused transcardically—first with 100 mL 0.05M phosphate buffed saline (PBS) containing 0.1% heparin, followed by 300–500 mL of 4% paraformaldehyde (PFA). Segments T9 to L1 of the spinal cords were taken out, then cryo-protected in 30% sucrose solution and frozen at −70° C. in 10.24% polyvinyl alcohol and 4.26% polyethylene glycol.
# A segment of each cord including the lesion site plus 10 mm rostral and caudal to the lesion site was embedded in Tissue Tek medium. Serial sections were cut longitudinally at 20 μm intervals on a cryostat. Every third section was stained with luxol fast blue for myelin. The evaluation was performed by observers blinded as to treatment, on coded slides. Sections were examined under a light microscope for the extent of demyelination (the area without luxol fast blue staining).
# For determinations of the maximal demyelinated area of the cord, the whole section was digitized on photographs using a Zeiss microscope. The extent of demyelination was measured at the lesion center using a computerized Bioquant BQ-TCW98 image analysis progrem by an investigator who was blind to treatment group.
# Statistical analysis was performed on a Macintosh computer using GB-Stat ppc 6.5.2. The histological results were analyzed by the Kruskal-Wallis nonparametric analysis of variance (ANOVA). Post hoc comparisons were made using Mann-Whitney U tests.
# [5] = tested on: RuR-induced flaccid paralysis; test: Antagonism of ruthenium red (RuR)-induced flaccid paralysis, flagpole test; type: in vivo, mouse
# Method: Method and Results: Groups of 4–5 mice (CD-1; Charles River; 25–35 grams) were separately but simultaneously injected ip with ruthenium red and vehicle (1% glacial acetic acid), ruthenium red and 4-AP, or ruthenium red and HP 184. The compound known as “8183” was also tested in this paradigm. Starting at 15 minutes after injections, mice were placed near a “flagpole” apparatus and their ability to support their own body weight (ie, to hold on to the flagpole and not fall) was recorded. Results were recorded as the number of mice that could support their own body weight versus the total number of mice tested. All experiments were performed between 2PM and 4:30PM.
# [6] = tested on: transient focal cerebral ischemia; test: Transient focal cerebral ischemia in rats, lesion size; type: in vivo, rat; conditions: 10 mg/kg iv 1 hour after ischemia onset
# Method: Methods: Male Sprague-Dawley rats [Iffa Credo, France] weighing about 220–240 g were anaesthetized with halothane (1.4%) in a nitrous oxide-oxygen mixture (70:30). Both common carotid arteries (CCAs) were isolated. The left middle cerebral artery (MCA) exposed via a temporal craniotomy was occluded with a microclip, and simultaneously the CCAs were occluded for 1 hour. Both body and cerebral temperatures were kept at normothermia. Following surgery animals were returned to their home cages in a room warmed at 24–26° C.
# HP184, dissolved in 1% tween (in injectable sterile water), was administered at 10 and 20 mg/kg iv 1 hour after ischemia onset, and control rats received the vehicle according to the same protocol. At 24 h post-ischemia, a neurological function using a 9 points grading scale was performed blindly.
# Thereafter rats were killed and brains were removed. Fresh sections were cut with a brain matrix and stained with triphenyl tetrazolium chloride 2% at 37° C. for 5 min. The sections were then stored in 10% formalin at 4° C. for 24 h. Areas of infarction were measured with an image analyzer (Leica Q500).
# [7] = 10 mg/kg ip with RuR 30 mg/kg ip, 15 min
# [8] = 10 mg/kg ip with RuR 30 mg/kg ip, 30 min
# [9] = 10 mg/kg ip with RuR 30 mg/kg ip, 45 min
# [10] = 30 mg/kg ip with RuR 30 mg/kg ip, 15 min
# [11] = 30 mg/kg ip with RuR 30 mg/kg ip, 30 min
# [12] = 30 mg/kg ip with RuR 30 mg/kg ip, 45 min
compound,measurement,setting,value
"CCCN(c1ccncc1F)n1cc(C)c2ccccc21 [HP184, N-(3-fluoro-4-pyridinyl)-N-propyl-3-methyl-1H-indole-1-amine]","mechanical hyperalgesia, difference of ligated minus normal paw withdrawal threshold, FIG. 10",[1],dose-response attentuation of L5 ligation mechanical hyperlagesia
same,tolerability,[2],very well-tolerated
same,edema (% excess water) at 25 h post lesion,[3]; 10 mg/kg iv at 24 h post lesion,3.61 ± 0.23 ns % excess water
same,edema (% excess water) at 25 h post lesion,[3]; 20 mg/kg iv at 24 h post lesion,3.20 ± 0.27 % excess water
same,reduction of the edema in the right cerebral cortex,"[3]; 20 mg/kg iv, one hour after administration, 25 hours after lesion",22%
same,"extent of demyelination, comparison of the groups",[4]; 3 mg/kg po,showed the least demyelination
same,myelin at the site of injury,[4]; 3 mg/kg/day by oral gavage from 35 to 41 days after moderate crush injury,more myelin at the site of injury
same,"myelinated / demyelinated area at the crush center, FIG. 7","[4]; HP184 0.3, 1 or 3 mg/kg po or 4-AP 0.6 mg/kg ip, days 35–42 after moderate crush",significantly greater myelinated area than that of saline controls
same,% of mice that could support their own body weight,[5]; [7],(93.3%)
same,number of mice that could support their own body weight versus total tested,[5]; [7],14 out of 15
same,% of mice that could support their own body weight,[5]; [8],(80%)
same,number of mice that could support their own body weight versus total tested,[5]; [8],12 out of 15
same,% of mice that could support their own body weight,[5]; [9],(73.3%)
same,number of mice that could support their own body weight versus total tested,[5]; [9],11 out of 15
same,% of mice that could support their own body weight,[5]; [10],(100%)
same,number of mice that could support their own body weight versus total tested,[5]; [10],15 out of 15
same,% of mice that could support their own body weight,[5]; [11],(100%)
same,number of mice that could support their own body weight versus total tested,[5]; [11],15 out of 15
same,% of mice that could support their own body weight,[5]; [12],(100%)
same,number of mice that could support their own body weight versus total tested,[5]; [12],15 out of 15
same,antagonism of the flaccid paralysis induced by ip RuR (conclusion),"[5]; ip, doses of Table 3",can antagonize the flaccid paralysis
same,reduction of lesion in the cortex,[6]; cortex,−45%
same,reduction of brain lesions,[6]; measured 24 h post-ischemia,41%
